Assays:
[1] = Tmax in BALB/c mouse at 10 mg/kg, po after 0.25 to 144 hrs by LC-MS/MS analysis; assay type: ADME, organism-based; conditions: in vivo
[2] = Drug concentration in Wistar rat plasma at 10 mg/kg, po after 8 hrs by LC-MS/MS analysis; assay type: ADME, organism-based
[3] = test system: Rattus norvegicus; assay: Memory enhancement effect in time-delay induced Wistar rat model of amnesia assessed as exploration time for novel object at 3 mg/kg, po administered as single dose after acquisition trial by novel object recognition test (reference value: 12.81 sec); assay type: functional
[4] = biological target: T1, Cytochrome P450 1A2 (Homo sapiens, UniProt P05177); assay: Inhibition of CYP1A2 (unknown origin) up to 10 uM; assay type: ADME
T1 sequence (P05177 whole entry): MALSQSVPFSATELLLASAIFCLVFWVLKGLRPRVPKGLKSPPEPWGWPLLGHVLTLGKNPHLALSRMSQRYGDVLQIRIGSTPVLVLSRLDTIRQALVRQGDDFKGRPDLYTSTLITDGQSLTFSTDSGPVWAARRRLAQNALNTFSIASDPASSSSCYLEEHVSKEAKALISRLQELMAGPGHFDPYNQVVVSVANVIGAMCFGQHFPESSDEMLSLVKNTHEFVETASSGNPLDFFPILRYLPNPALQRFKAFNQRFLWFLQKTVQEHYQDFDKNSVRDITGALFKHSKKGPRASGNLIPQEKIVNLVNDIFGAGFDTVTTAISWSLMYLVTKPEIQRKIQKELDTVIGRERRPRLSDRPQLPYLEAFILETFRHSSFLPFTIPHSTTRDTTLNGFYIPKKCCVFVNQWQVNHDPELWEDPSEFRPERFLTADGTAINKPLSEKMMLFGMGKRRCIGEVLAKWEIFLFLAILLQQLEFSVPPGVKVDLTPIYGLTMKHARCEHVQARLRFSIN

[5] = Drug concentration in Wistar rat brain at 10 mg/kg, po after 48 hrs by LC-MS/MS analysis; assay type: ADME, organism-based; conditions: read-out: Drug uptake
[6] = Volume of distribution at steady state in Beagle dog at 1 mg/kg, iv after 0.083 to 144 hrs by LC-MS/MS analysis; assay type: ADME, organism-based, Canis lupus familiaris; conditions: in vivo, read-out: Vdss
[7] = Cmax in Wistar rat at 1 mg/kg, iv after 0.083 to 144 hrs by LC-MS/MS analysis; assay type: ADME, organism-based; set-up: dose 1 mg/kg, route intravenous; conditions: in vivo
[8] = test system: Rattus norvegicus; assay: Memory enhancement effect in scopolamine-induced Wistar rat model of amnesia assessed as increase in exploration time for novel object in retention trial at 0.15 mg/kg, po administered as single dose and measured on day 9 by novel object recognition test (reference value: 12.09 sec); assay type: functional
[9] = Drug metabolism in mouse liver microsomes assessed as metabolic rate at 1 uM preincubated for 5 mins followed by NADPH addition after 30 mins by LC-MS/MS analysis; assay type: ADME, Microsome; conditions: 0.5 h
[10] = Drug level in scopolamine-induced Sprague-Dawley rat brain at 0.15 mg/kg, po for 7 days; assay type: ADME, organism-based; conditions: read-out: Drug uptake
[11] = Protein binding in rat plasma assessed as unbound fraction at 5 uM incubated for 16 hrs under shaking condition by LC/MS/MS based rapid equilibrium dialysis method; assay type: ADME, cell-free
[12] = Cmax in Beagle dog at 1 mg/kg, iv after 0.083 to 144 hrs by LC-MS/MS analysis; assay type: ADME, organism-based, Canis lupus familiaris; set-up: dose 1 mg/kg, route intravenous; conditions: in vivo
[13] = biological target: T2, Cytochrome P450 2A6 (Homo sapiens, UniProt P11509); assay: Inhibition of CYP2A6 (unknown origin) up to 10 uM; assay type: ADME
T2 sequence (P11509 whole entry): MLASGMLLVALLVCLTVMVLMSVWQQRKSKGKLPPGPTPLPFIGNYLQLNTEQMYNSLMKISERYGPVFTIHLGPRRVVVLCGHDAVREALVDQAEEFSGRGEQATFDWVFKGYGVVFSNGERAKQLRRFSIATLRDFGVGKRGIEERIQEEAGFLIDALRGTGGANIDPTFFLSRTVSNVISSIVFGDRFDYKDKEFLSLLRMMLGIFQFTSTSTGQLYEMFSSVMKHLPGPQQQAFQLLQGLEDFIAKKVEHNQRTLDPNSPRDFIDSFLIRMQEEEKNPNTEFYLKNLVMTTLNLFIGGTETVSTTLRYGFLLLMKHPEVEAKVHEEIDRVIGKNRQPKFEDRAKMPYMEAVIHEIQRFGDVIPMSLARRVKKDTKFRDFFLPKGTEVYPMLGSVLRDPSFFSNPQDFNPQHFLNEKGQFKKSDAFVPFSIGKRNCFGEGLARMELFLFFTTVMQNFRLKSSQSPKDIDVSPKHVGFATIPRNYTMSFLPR

[14] = test system: Rattus norvegicus; assay: Memory enhancement effect in time-delay induced Wistar rat model of amnesia assessed as increase in discrimination index at 0.15 mg/kg, po for 7 days and measured on day 8 by novel object recognition test (reference value: 0.12); assay type: functional
[15] = biological target: Cytochrome P450 3A4 (Homo sapiens, UniProt P08684); assay: Inhibition of CYP3A4 (unknown origin) up to 10 uM; assay type: ADME
[16] = Drug level in Sprague-Dawley rat plasma at 0.05 mg/kg, po for 7 days; assay type: ADME, organism-based
[17] = test system: Rattus norvegicus; assay: Memory enhancement effect in time-delay induced Wistar rat model of amnesia assessed as increase in discrimination index at 0.05 mg/kg, po for 7 days and measured on day 8 by novel object recognition test (reference value: 0.12); assay type: functional
[18] = Cmax in BALB/c mouse at 10 mg/kg, po after 0.25 to 144 hrs by LC-MS/MS analysis; assay type: ADME, organism-based; set-up: dose 10 mg/kg, route oral; conditions: in vivo
[19] = test system: Rattus norvegicus; assay: Improvement in social recognition time delay-induced Sprague-Dawley rat model of amnesia assessed as increase in reduction in social investigation time at 0.15 mg/kg, po for 7 days and measured on day 9 (reference value: -0.5%); assay type: functional; set-up: scale not given: the % may be the effect or the level left
[20] = biological target: Cytochrome P450 2C19 (Homo sapiens, UniProt P33261); assay: Inhibition of CYP2C19 (unknown origin) up to 10 uM; assay type: ADME
[21] = Clearance in Beagle dog at 1 mg/kg, iv after 0.083 to 144 hrs by LC-MS/MS analysis; assay type: ADME, organism-based, Canis lupus familiaris; conditions: in vivo
[22] = test system: Rattus norvegicus; assay: Memory enhancement effect in time-delay induced Wistar rat model of amnesia assessed as exploration time for object1 in acquisition trial at 0.5 mg/kg, po for 7 days and measured on day 8 by novel object recognition test (reference value: 13.73 sec); assay type: functional
[23] = test system: Rattus norvegicus; assay: Improvement in social recognition time delay-induced Sprague-Dawley rat model of amnesia assessed as increase in reduction in social investigation time at 0.05 mg/kg, po for 7 days measured on day 9 (reference value: -0.5%); assay type: functional; set-up: scale not given: the % may be the effect or the level left
[24] = Tmax in Beagle dog at 1 mg/kg, iv after 0.083 to 144 hrs by LC-MS/MS analysis; assay type: ADME, organism-based, Canis lupus familiaris; conditions: in vivo
[25] = test system: Rattus norvegicus; assay: Memory enhancement effect in time-delay induced Wistar rat model of amnesia assessed as exploration time for object2 in acquisition trial at 3 mg/kg, po administered as single dose and measured on day 8 by novel object recognition test (reference value: 16.33 sec); assay type: functional
[26] = Tmax in Wistar rat at 10 mg/kg, po after 0.25 to 144 hrs by LC-MS/MS analysis; assay type: ADME, organism-based; conditions: in vivo

Chain of Cytochrome P450 3A4 (P08684 whole entry): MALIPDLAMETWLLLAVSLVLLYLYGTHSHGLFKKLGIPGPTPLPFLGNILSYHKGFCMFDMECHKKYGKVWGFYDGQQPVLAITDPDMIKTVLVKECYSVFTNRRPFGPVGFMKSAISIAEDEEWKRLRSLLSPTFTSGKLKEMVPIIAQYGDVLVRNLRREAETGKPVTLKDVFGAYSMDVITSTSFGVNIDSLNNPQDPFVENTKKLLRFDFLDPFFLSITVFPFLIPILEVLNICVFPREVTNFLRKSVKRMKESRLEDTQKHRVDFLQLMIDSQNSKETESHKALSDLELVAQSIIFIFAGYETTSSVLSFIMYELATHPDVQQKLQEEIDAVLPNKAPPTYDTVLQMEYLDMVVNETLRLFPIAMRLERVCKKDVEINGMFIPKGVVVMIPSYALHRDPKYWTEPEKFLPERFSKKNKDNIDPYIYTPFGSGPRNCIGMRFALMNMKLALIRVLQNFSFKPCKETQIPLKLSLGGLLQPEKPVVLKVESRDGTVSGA
Chain of Cytochrome P450 2C19 (P33261 whole entry): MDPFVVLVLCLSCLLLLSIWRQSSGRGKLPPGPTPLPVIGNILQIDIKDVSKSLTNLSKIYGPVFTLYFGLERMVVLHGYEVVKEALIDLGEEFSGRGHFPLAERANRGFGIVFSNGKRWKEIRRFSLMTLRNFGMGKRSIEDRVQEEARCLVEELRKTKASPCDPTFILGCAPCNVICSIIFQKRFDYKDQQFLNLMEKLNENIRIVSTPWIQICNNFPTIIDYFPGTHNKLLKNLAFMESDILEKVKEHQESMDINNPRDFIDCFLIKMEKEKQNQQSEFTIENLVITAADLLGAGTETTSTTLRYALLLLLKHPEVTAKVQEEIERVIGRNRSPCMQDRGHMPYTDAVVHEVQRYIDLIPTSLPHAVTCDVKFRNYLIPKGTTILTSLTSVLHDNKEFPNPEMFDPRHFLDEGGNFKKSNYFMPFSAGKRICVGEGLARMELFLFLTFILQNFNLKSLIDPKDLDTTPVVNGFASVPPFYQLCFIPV

## CCC(=O)c1sc(-c2ccc(Cl)cc2)c(C)c1-c1ccc(S(N)(=O)=O)cc1
[1]
  Tmax: 4 h
[2]
  concentration at 8 h: 830 nM
[3]
  Time: 18.61 s
[4]
  inhibition (INH): Not Active
[5]
  concentration at 48 h: 5530 nM
[6]
  Vd: 4 L/kg
[7]
  Cmax: 1100 nM
[8]
  Time: 12.8 s
[9]
  Drug metabolism: 0.01 nmol/min/mg
[10]
  concentration at 168 h: 530 nM
[11]
  fraction unbound at 16 h, 5 µM: 0.0058
[12]
  Cmax: 3000 nM
[13]
  inhibition (INH): Not Active
[14]
  Activity_index: 0.3
[15]
  inhibition (INH): Not Active
[16]
  concentration at 168 h: 130 nM
[17]
  Activity_index: 0.27
[18]
  Cmax: 3400 nM
[19]
  Activity: 43.63%
[20]
  inhibition (INH): Not Active
[21]
  clearance: 0.7 mL/min/kg
[22]
  Time: 10.04 s
[23]
  Activity: 18.97%
[24]
  Tmax: 0.25 h
[25]
  Time: 19.43 s
[26]
  Tmax: 5.2 h
